Patent US20160051629A1, “INHIBITION OF RIP KINASES FOR TREATING LYSOSOMAL STORAGE DISEASES” (YEDA RESEARCH AND DEVELOPMENT CO. LTD., priority 2013, published 2016)

How the values were obtained:
[1] = in vivo; cited from earlier work
Gaucher disease mice = assay: Anakinra (IL-1Ra) treatment of CBE-induced Gaucher disease mice; type: in vivo
Protocol: Mice were injected i.p. with 50 mg/kg/day CBE or CBE+IL-1Ra (Anakinra, 75 mg/kg) from 8 days of age. Body weight (FIG. 7A) and life span (FIG. 7B) of mice treated with either CBE only or CBE+Anakinara (n=3).
Gba^flox/flox; mice were crossed with Gba^flox/+; Nestin-Cre mice to generate Gba^flox/flox; Nestin-Cre mice (Enquist, I. B. et al. 2007. Proc. Natl. Acad. Sci. U.S.A. 104, 17483-17488) and Gba^flox/+; Nestin-Cre mice, which served as healthy controls. Genotyping was performed by PCR using genomic DNA extracted from mouse tails or embryonic brains (Farfel-Becker, T. et al. 2009. Hum. Mol. Genet. 18, 1482-1488). Both male and female mice were used. The colony was maintained in the experimental animal center of the Weizmann Institute of Science. All animal experiments were approved by the Weizmann Institute Institutional Animal Care and Use Committee. Mice deficient in galactocerebrosidase (the Twitcher mouse) were used as a model of Krabbe disease (Suzuki. K. & Taniike, M. 1995. Res. Tech. 32, 204-214), mice deficient in the β-subunit of β-hexosaminidase A and B were used as a model of Sandhoff disease (Sango, K. et al. 1995. Nat. Genet. 11, 170-176). Brains from a mouse model of the GM1 gangliosidosis (Hahn, C. N. et al. 1997. Hum. Mol. Genet. 6, 205-211), defective in lysosomal β-galactosidase, and from Niemann-Pick disease Type C1 mice (Pentchev, P. G. et al. 1984. J. Biol. Chem. 259, 5784-5791), defective in the NPC1 gene, were also used. Mice deficient in TNFα (strain B6; 129S6-Tnftm1Gkl/J, The Jackson Laboratory) were provided by Dr. David Wallach (Weizmann Institute, Israel). C57BL/6J (The Jackson Laboratory) mice were injected daily intraperitoneally with 50 mg CBE/kg body weight/day (Kanfer, J. N. et al. 1975. Biochem. Biophys. Res. Commun. 67, 85-90) or with phosphate-buffered saline from 8 days of age.

Compound | crossing of the blood-brain barrier [1] | half-life [1] [h] | clinical course of Gaucher disease mice (Gaucher disease mice; 50 mg/kg/day CBE i.p. + IL-1Ra (Anakinra, 75 mg/kg) from 8 days of age, FIG. 7) | gain weight (body weight) (Gaucher disease mice; CBE-treated mice, 50 mg/kg/day CBE i.p. + Anakinra 75 mg/kg from 8 days of age, vs CBE only, n=3, FIG. 7A) | life-span (Gaucher disease mice; CBE-treated mice, 50 mg/kg/day CBE i.p. + Anakinra 75 mg/kg from 8 days of age, vs CBE only, n=3, FIG. 7B)
CN1C(=O)C(Cc2c[nH]c3ccccc23)NC1=S (centres unmarked) [Nec-1, necrostatin-1] | crosses the blood-brain barrier | ~1 |  |  | 
Anakinra: a recombinant, non-glycosylated version of human IL-1 receptor antagonist, sold under the trade name KINERET (Amgen) |  |  | improves the clinical course | improves gain weight | improves
